Consider 28 molecules from patent US20250313574A1, “SIALIC ACID DERIVATIVES AND METHODS OF USING SAME” (EISAI R&D MANAGEMENT CO., LTD., priority 2022, published 2025).

Test [1] has as its target Recombinant Human Siglec-3/CD33 protein (His-CD33) (Homo sapiens (Human), UniProt P20138). As to the kind of experiment: Differential scanning fluorimetry (DSF) thermal shift assay. Type of test: binding. On the procedure: In the DSF assay, as the temperature increases, the protein gets gradually unfolded, exposing hydrophobic regions in which a fluorescent dye binds causing the fluorescence signal to increase. The midpoint of the unfolding transitions is called the thermal melt (Tm) or denaturation temperature and the Tm was defined as the peak apex in the derivative curve. Here, the Tm temperature of CD33 in the presence and absence of A-001 at a concentration of 50 μM was examined.
Recombinant Human Siglec-3/CD33 protein was purchased from Acros (catalog no. CD3-H5226) and reagents used in this study are shown in the Table 1 below.
Lyophilized CD33 protein was received in 1 mg aliquots from Acros. The protein was diluted with 2.5 mL of sterile water to a concentration of 400 μg/mL (14.5 μM), aliquoted into 138 μL aliquots and stored as at −20° C. On the day of analysis, the protein was thawed and […] solution was diluted to […] using buffer containing 133 mM NaCl, 133 mM phosphate buffered solution and 13.9× Sypro Orange dye in water in a quantity to cover the amount of samples tested on the day of the analysis.
200 μM stock solutions of A-001 containing 0.2% DMSO in water was supplied by compound management in a 384-well plate format.
Sample matrix were prepared by adding 7.5 μL of the protein buffer stock solution followed by addition of 2.5 μL of the 200 μM compound solutions in 384-well PCR plates to give a final volume of 10 μL per well consisting of 0.5 μM CD33 protein, 100 mM phosphate buffered solution pH 7.4, 100 mM NaCl, 10× SYPRO orange dye and 50 μM compound concentration (final DMSO concentration ˜0.2%). Using the Applied Biosystems® Protein Thermal Shift software (algorithm version 1.3.), the denaturation temperature or thermal melt (Tm) of the unbound and ligand bound CD33 protein was automatically assigned and the difference in thermal melt (ΔTm D) was calculated using the derivative curve by the Protein Thermal Shift software.
Recombinant human CD33 protein (0.5 μM) was incubated under buffered conditions in the presence of SYPRO orange dye, a temperature gradient was applied and a thermogram was produced by monitoring the fluorescence. The Tm was defined as the peak apex in the derivative curve in the study. […] Addition of […] of A-001 (Blue lines) to the CD33 protein induced significant Tm increases (ΔTm D) of 12.2±0.7° C.
A general note: Differential scanning fluorimetry follows unfolding on heating by fluorescence.

The target in test [2] is Recombinant human CD33 protein (Homo sapiens (Human), UniProt P20138). In words: CD33 competitive binding assay for HTS drug screen (fluorescent multivalent sialic acid probe). The essentials:
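Recombinant human CD33, coated overnight at 4° C from 10 μg/ml in pH 5.5 acetate, was preincubated briefly with compound. It was then exposed to a multivalent neutravidin/FITC/sialic acid analog A-375 probe (final 5 μM neutravidin, 15 μM A-375, 5 μM FITC) for 30 min at room temperature. After washing, bound FITC fluorescence was read.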

Where [3] appears, read: thermal melt shift of 0.5 μM CD33 protein with 50 μM compound.
Setting [4] is: difference in thermal melt of CD33 protein (0.5 μM) with 50 μM compound.

Chain of Recombinant human CD33 protein (P20138 18-259): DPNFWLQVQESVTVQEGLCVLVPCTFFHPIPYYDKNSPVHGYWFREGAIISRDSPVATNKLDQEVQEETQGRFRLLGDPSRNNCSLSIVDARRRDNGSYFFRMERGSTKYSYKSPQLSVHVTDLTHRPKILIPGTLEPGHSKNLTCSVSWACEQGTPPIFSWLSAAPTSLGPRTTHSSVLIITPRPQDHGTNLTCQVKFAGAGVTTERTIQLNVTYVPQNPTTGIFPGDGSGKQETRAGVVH
Chain of Recombinant Human Siglec-3/CD33 protein (His-CD33) (P20138 18-259): as above

For the molecule `CC(=O)N[C@H]1[C@H]([C@H](O)[C@H](O)CNC(=O)c2ccc3occc3c2)O[C@@](CCN2CCOC[C@@]23CCN(C(=O)OC(C)(C)C)C3)(C(=O)O)C[C@@H]1O` [A-137], the “DSF (dTmD)” value in test [1] (setting [3]) stood at 12.7. The EC50 in test [2] was 76 nM.
Turning to `CC(=O)N[C@H]1[C@H]([C@H](O)[C@H](O)CNC(=O)c2cc(C)c(O)c(C)c2)O[C@@](CC(O)[C@@H](O)c2cccc(NC(=O)CC(C)(C)C)c2)(C(=O)O)C[C@@H]1O` (some centres unmarked) [A-304], in test [1] (setting [4]), the “DSF (dTmD)” value was determined as 3.9 °C. Also, in test [2], the EC50 is 4700 nM.
`Cc1cc(C(=O)NC[C@@H](O)[C@@H](O)[C@@H]2O[C@@](CC3OC(C)(C)O[C@H]3c3cccc(NC(=O)OC(C)(C)C)c3)(C(=O)O)C[C@H](O)[C@H]2NC(=O)Cn2cc(C3CCCCC3)nn2)cc(C)c1O` (some centres unmarked) [A-299]: the “DSF (dTmD)” value in test [1] (setting [4]) was 8.0 °C. The EC50 in test [2] stood at 512 nM.
The matching figures for `CC(=O)N[C@H]1[C@H]([C@H](O)[C@H](O)CNC(=O)c2cc(C)c(O)c(C)c2)O[C@@](C/C=C/c2cccc(CNC(=O)c3ccc4[nH]cnc4c3)c2)(C(=O)O)C[C@@H]1O` [A-236]: 4.4 °C and 2010 nM.
For `CNC(=O)c1c(C)cc(C(=O)NC[C@@H](O)[C@@H](O)[C@@H]2O[C@@](CCN3CCOC[C@@]34CCN(C(=O)OC(C)(C)C)C4)(C(=O)O)C[C@H](O)[C@H]2NC(C)=O)cc1C` [A-164], the “DSF (dTmD)” value in test [1] (setting [3]) was 5.3. The EC50 in test [2] was 1560 nM.
The matching figures for `CC(=O)N[C@H]1[C@H]([C@H](O)[C@H](O)CNC(=O)c2cc(C)c(O)c(C)c2)O[C@@](CCN2CCOC[C@@]23CCN(c2cc(C4CC4)ccn2)C3)(C(=O)O)C[C@@H]1O` [A-036]: 12.5 and 16 nM.
For the molecule `CC(=O)N[C@H]1[C@H]([C@H](O)[C@H](O)CNC(=O)c2cc(C)c(O)c(C)c2)O[C@@](C/C=C/c2cccc(CNC(=O)C3CCC(Nc4cnccn4)CC3)c2)(C(=O)O)C[C@@H]1O` (some centres unmarked) [A-247], the “DSF (dTmD)” value in test [1] (setting [4]) was determined as 8.5 °C. In test [2], the EC50 was 353 nM.
With `CC(=O)N[C@H]1[C@H]([C@H](O)[C@H](O)CNC(=O)c2cc(C)c(O)c(C)c2)O[C@@](CCN2CCOC[C@@]23CCN(C(=O)C2(c4ccccc4)CC2)C3)(C(=O)O)C[C@@H]1O` [A-098], the “DSF (dTmD)” value in test [1] (setting [3]) is reported as 6.9. Also, the EC50 in test [2] was 685 nM.
For the molecule `CC(=O)N[C@H]1[C@H]([C@H](O)[C@H](O)CNC(=O)c2cccc(Br)c2)O[C@@](CCN2CCOC[C@@]23CCN(C(=O)OC(C)(C)C)C3)(C(=O)O)C[C@@H]1O` [A-116], the “DSF (dTmD)” value in test [1] (setting [3]) is 12.4. Further, the EC50 in test [2] was found to be 42 nM.
The matching figures for `CC(=O)N[C@H]1[C@H]([C@H](O)[C@H](O)CNC(=O)c2ccc(O)c(C)c2)O[C@@](CCN2CCOC[C@@]23CCN(C(=O)OC(C)(C)C)C3)(C(=O)O)C[C@@H]1O` [A-117]: 12.4 and 28 nM.
Consider `CC(=O)N1CCC(C(=O)NCc2cccc(/C=C/C[C@]3(C(=O)O)C[C@H](O)[C@@H](NC(=O)Cn4cc(C5CCCCC5)nn4)[C@H]([C@H](O)[C@H](O)CNC(=O)c4cc(C)c(O)c(C)c4)O3)c2)CC1` [A-266], for which the “DSF (dTmD)” value in test [1] (setting [4]) came to 6.2 °C. The EC50 in test [2] stood at 1380 nM.
Regarding `COc1cc(C(=O)NC[C@@H](O)[C@@H](O)[C@@H]2O[C@@](CCN3CCOC[C@@]34CCN(C(=O)OC(C)(C)C)C4)(C(=O)O)C[C@H](O)[C@H]2NC(C)=O)cc(OC)c1O` [A-123], in test [1] (setting [3]), the “DSF (dTmD)” value is listed as 11.0. Besides, the EC50 in test [2] stood at 68 nM.
In the case of `Cc1cc2cc(C)c1OCc1cccc(c1)[C@H](NC(=O)C1CCCOC1)CCC/C=C/C[C@]1(C(=O)O)C[C@H](O)[C@@H](NC(=O)Cn3cc(C4CCCCC4)nn3)[C@@H](O1)[C@H](O)[C@H](O)CNC2=O` (some centres unmarked) [A-356], the “DSF (dTmD)” value in test [1] (setting [4]) is 4.8 °C. The EC50 in test [2] was 1510 nM.
The matching figures for `Cc1cc(C(=O)NC[C@@H](O)[C@@H](O)[C@@H]2O[C@@](C/C=C/c3cccc(CNC(=O)C4C5OCCC[C@H]54)c3)(C(=O)O)C[C@H](O)[C@H]2NC(=O)Cn2cc(C3CCCCC3)nn2)cc(C)c1O` (some centres unmarked) [A-272]: 4.9 °C and 9640 nM.
For the molecule `CC(=O)N[C@H]1[C@H]([C@H](O)[C@H](O)CNC(=O)c2cc(C)c(O)c(C)c2)O[C@@](CC2OC(C)(C)O[C@H]2c2cccc(NC(=O)C(=O)[C@H](C)c3cc(C4CC4)no3)c2)(C(=O)O)C[C@@H]1O` (some centres unmarked) [A-305], the “DSF (dTmD)” value in test [1] (setting [4]) was 5.4 °C. In addition, the EC50 in test [2] amounted to 792 nM.
As to `CC(=O)N[C@H]1[C@H]([C@H](O)[C@H](O)CNC(=O)c2cccc(Cl)c2)O[C@@](CCN2CCOC[C@@]23CCN(C(=O)OC(C)(C)C)C3)(C(=O)O)C[C@@H]1O` [A-182], in test [1] (setting [3]), the “DSF (dTmD)” value is 11.7. The EC50 in test [2] was found to be 73 nM.
The matching figures for `CC(=O)N[C@H]1[C@H]([C@H](O)[C@H](O)CNC(=O)c2cc(C)c(O)c(C)c2)O[C@@](CCN2CCOC[C@@]23CCN(C(=O)N(C)Cc2ccccc2)C3)(C(=O)O)C[C@@H]1O` [A-063]: 6.3 and 323 nM.
The matching figures for `CC(=O)N[C@H]1[C@H]([C@H](O)[C@H](O)CNC(=O)c2ccc(Cl)c(Cl)c2)O[C@@](CCN2CCOC[C@@]23CCN(C(=O)OC(C)(C)C)C3)(C(=O)O)C[C@@H]1O` [A-186]: 10.8 and 127 nM.
The matching figures for `CC(=O)N[C@H]1[C@H]([C@H](O)[C@H](O)CNC(=O)c2cn[nH]c2)O[C@@](CCN2CCOC[C@@]23CCN(C(=O)OC(C)(C)C)C3)(C(=O)O)C[C@@H]1O` [A-161]: 5.9 and 1080 nM.
Regarding `CC(=O)N[C@H]1[C@H]([C@H](O)[C@H](O)CNC(=O)c2cc(C)c(O)c(C)c2)O[C@@](CCN2CCNC[C@@]23CCN(C(=O)OC(C)(C)C)C3)(C(=O)O)C[C@@H]1O` [A-012], the “DSF (dTmD)” value in test [1] (setting [3]) was 12.6. Further, the EC50 in test [2] was 22 nM.
Regarding `Cc1cc(C(=O)NC[C@@H](O)[C@@H](O)[C@@H]2O[C@@](OC3CCCCC3NC(=O)CNC(=O)CC3CCOCC3)(C(=O)O)C[C@H](O)[C@H]2NC(=O)Cn2cc(C3CCCCC3)nn2)cc(C)c1O` (some centres unmarked) [A-328], in test [1] (setting [4]), the “DSF (dTmD)” value came out at 1.4 °C. In addition, in test [2], the concentration giving a half-maximal response (EC50) was determined as 12300 nM.
Take `CC(=O)N[C@H]1[C@H]([C@H](O)[C@H](O)CNC(=O)c2cc(C)on2)O[C@@](CCN2CCOC[C@@]23CCN(C(=O)OC(C)(C)C)C3)(C(=O)O)C[C@@H]1O` [A-188]: in test [1] (setting [3]), the “DSF (dTmD)” value was 4.5. The EC50 in test [2] stood at 2080 nM.
As for `CC(=O)N[C@H]1[C@H]([C@H](O)[C@H](O)CNC(=O)c2cc(C)c(O)c(C)c2)O[C@@](C/C=C/c2cccc(CNC(=O)C3CCC(Nc4ccc(C(N)=O)cn4)CC3)c2)(C(=O)O)C[C@@H]1O` (some centres unmarked) [A-258], in test [1] (setting [4]), the “DSF (dTmD)” value worked out at 0.8 °C. The EC50 in test [2] is 9370 nM.
For the molecule `COCc1cc2cc(C(=O)NCc3cccc(/C=C/C[C@]4(C(=O)O)C[C@H](O)[C@@H](NC(C)=O)[C@H]([C@H](O)[C@H](O)CNC(=O)c5cc(C)c(O)c(C)c5)O4)c3)ccc2[nH]1` [A-232], the “DSF (dTmD)” value in test [1] (setting [4]) was 9.8 °C. The EC50 in test [2] was found to be 74 nM.
The matching figures for `Cc1cc2cc(C)c1OCCCNC(=O)CCCCCCC[C@]1(C(=O)O)C[C@H](O)[C@@H](NC(=O)Cn3cc(C4CCCCC4)nn3)[C@@H](O1)[C@H](O)[C@H](O)CNC2=O` [A-344]: 1.52 °C and 18000 nM.
Turning to `CC(=O)N[C@H]1[C@H]([C@H](O)[C@H](O)CNC(=O)c2cc(C)c(O)c(C)c2)O[C@@](CCN2CCN(C(C)=O)C[C@]23CCN(C(=O)OC(C)(C)C)C3)(C(=O)O)C[C@@H]1O` [A-015], the “DSF (dTmD)” value in test [1] (setting [3]) was 3.8. Besides, the EC50 in test [2] was 3340 nM.
For `Cc1cc(C(=O)NC[C@@H](O)[C@@H](O)[C@@H]2O[C@@](OC3CCCCC3NC(=O)Cn3cc(CNC(=O)c4cccc(C#N)c4)nn3)(C(=O)O)C[C@H](O)[C@H]2NC(=O)Cn2cc(C3CCCCC3)nn2)cc(C)c1O` (some centres unmarked) [A-330], in test [1] (setting [4]), the “DSF (dTmD)” value was 5.0 °C. In addition, the EC50 in test [2] worked out at 4810 nM.
The matching figures for `Cc1cc2cc(C)c1OCCCNC(=O)[C@H](C)COCCCC[C@]1(C(=O)O)C[C@H](O)[C@@H](NC(=O)Cn3cc(C4CCCCC4)nn3)[C@@H](O1)[C@H](O)[C@H](O)CNC2=O` [A-359]: 1.1 °C and 59800 nM.

As a reminder, the EC50 is the concentration needed to bring the measured effect to its halfway point.
